Experiments:
Androgen receptor (AR) = biological target: T1, Androgen receptor (AR) (Homo sapiens, UniProt P10275, T878A); assay: Assessment of AR proteolytic activity (Western blotting of LNCap cell lysates); type: cell-based; conditions: 24 hours of treatment, Western blotting quantified with Image J
T1 construct: 5.5×10^5 LNCap cells were injected into each well of a 6-well plate; endogenous in cells; host or cells: LNCaP
T1 sequence (P10275 1-920 T878A): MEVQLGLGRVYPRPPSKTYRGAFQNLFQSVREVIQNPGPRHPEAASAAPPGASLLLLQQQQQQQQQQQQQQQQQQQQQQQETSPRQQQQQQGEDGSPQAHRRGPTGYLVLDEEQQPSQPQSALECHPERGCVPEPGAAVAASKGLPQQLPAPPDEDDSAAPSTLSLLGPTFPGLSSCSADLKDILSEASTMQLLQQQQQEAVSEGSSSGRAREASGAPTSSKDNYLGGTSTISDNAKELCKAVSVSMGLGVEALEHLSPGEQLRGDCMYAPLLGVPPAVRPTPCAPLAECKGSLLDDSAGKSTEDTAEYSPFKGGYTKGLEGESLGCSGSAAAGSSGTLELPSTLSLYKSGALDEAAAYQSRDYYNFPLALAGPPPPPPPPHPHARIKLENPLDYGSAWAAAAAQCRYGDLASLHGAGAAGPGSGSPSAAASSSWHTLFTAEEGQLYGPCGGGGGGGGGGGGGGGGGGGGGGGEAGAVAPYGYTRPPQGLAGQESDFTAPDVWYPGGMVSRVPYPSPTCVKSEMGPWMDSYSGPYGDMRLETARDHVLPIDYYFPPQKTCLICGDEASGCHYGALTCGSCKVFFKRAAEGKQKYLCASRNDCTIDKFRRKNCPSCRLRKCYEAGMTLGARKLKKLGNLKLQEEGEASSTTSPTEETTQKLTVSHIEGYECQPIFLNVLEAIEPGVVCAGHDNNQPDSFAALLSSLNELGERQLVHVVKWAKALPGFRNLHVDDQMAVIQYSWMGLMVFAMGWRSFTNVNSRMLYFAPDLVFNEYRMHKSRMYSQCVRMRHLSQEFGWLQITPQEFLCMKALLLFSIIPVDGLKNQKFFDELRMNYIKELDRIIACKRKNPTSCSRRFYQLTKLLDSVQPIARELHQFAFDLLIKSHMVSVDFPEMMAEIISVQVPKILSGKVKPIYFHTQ
Method in brief: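 LNCap cells seeded at 5.5×10^5 per well and treated with compound for 24 hours. Lysates prepared in RIPA buffer (pH 7.5, with protease inhibitors). AR protein levels assessed by Western blot with densitometric quantification.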

Row | Degradation (1 μM treated in LNCaP, % AR remaining) (Androgen receptor (AR)) | Compound | CC50 (VCaP cells)
1 | 12.3% | CC1(C)C(NC(=O)c2ccc(N3CCN(C(=O)COc4ccc5nnn(C6CCC(=O)NC6=O)c(=O)c5c4)CC3)cc2)C(C)(C)C1Oc1ccc(C#N)c(Cl)c1 (stereo not shown) [Example 41, N-((1r,3r)-3-(3-chloro-4-cyanophenoxy)-2,2,4,4-tetramethylcyclobutyl)-4-(4-(2-((3-(2,6-dioxopiperidin-3-yl)-4-oxo-3,4-dihydrobenzo[d][1,2,3]triazin-6-yl)oxy)acetyl)piperazin-1-yl)benzamide] | 20 nM
2 | 30% | CC1(C)C(NC(=O)c2ccc(C3CCN(CCOC4CCN(c5ccc6nnn(C7CCC(=O)NC7=O)c(=O)c6c5)CC4)CC3)cc2)C(C)(C)C1Oc1ccc(C#N)c(Cl)c1 (stereo not shown) [Example 76, N-((1r,3r)-3-(3-chloro-4-cyanophenoxy)-2,2,4,4-tetramethylcyclobutyl)-4-(1-(2-((1-(3-(2,6-dioxopiperidin-3-yl)-4-oxo-3,4-dihydrobenzo[d][1,2,3]triazin-6-yl)piperidin-4-yl)oxy)ethyl)piperidin-4-yl)benzamide] | 35 nM
3 | 9% | CC1(C)C(NC(=O)c2ccc(C#CCC3CCN(C(=O)C4CN(c5ccc6nnn(C7CCC(=O)NC7=O)c(=O)c6c5)C4)CC3)cc2)C(C)(C)C1Oc1ccc(C#N)c(Cl)c1 (stereo not shown) [Example 87, N-((1r,3r)-3-(3-chloro-4-cyanophenoxy)-2,2,4,4-tetramethylcyclobutyl)-4-(3-(1-(1-(3-(2,6-dioxopiperidin-3-yl)-4-oxo-3,4-dihydrobenzo[d][1,2,3]triazin-6-yl)azetidine-3-carbonyl)piperidin-4-yl)prop-1-yn-1-yl)benzamide] | 31.9 nM
4 | 99% | CC1(C)C(NC(=O)c2ccc(N3CCN(CC4CCN(CC5CCN(c6ccc7nnn(C8CCC(=O)NC8=O)c(=O)c7c6)CC5)CC4)CC3)cc2)C(C)(C)C1Oc1ccc(C#N)c(Cl)c1 (stereo not shown) [Example 70, N-((1r,3r)-3-(3-chloro-4-cyanophenoxy)-2,2,4,4-tetramethylcyclobutyl)-4-(4-((1-((1-(3-(2,6-dioxopiperidin-3-yl)-4-oxo-3,4-dihydrobenzo[d][1,2,3]triazin-6-yl)piperidin-4-yl)methyl)piperidin-4-yl)methyl)piperazin-1-yl)benzamide] | 205 nM
5 | 7.7% | CC1(C)[C@H](NC(=O)c2ccc(N3CCN(CC4(O)CCN(C(=O)COc5ccc6nnn(C7CCC(=O)NC7=O)c(=O)c6c5)CC4)CC3)cc2)C(C)(C)[C@H]1Oc1ccc(C#N)c(Cl)c1 (stereo partly shown) [Example 54, N-((1r,3r)-3-(3-chloro-4-cyanophenoxy)-2,2,4,4-tetramethylcyclobutyl)-4-(4-((1-(2-((3-(2,6-dioxopiperidin-3-yl)-4-oxo-3,4-dihydrobenzo[d][1,2,3]triazin-6-yl)oxy)acetyl)-4-hydroxypiperidin-4-yl)methyl)piperazin-1-yl)benzamide] | 553 nM
6 | 35% | CC1(C)C(NC(=O)c2ccc(N3CCN(C=C4CCN(C(=O)C5CN(c6ccc7nnn(C8CCC(=O)NC8=O)c(=O)c7c6)C5)CC4)CC3)cc2)C(C)(C)C1Oc1ccc(C#N)c(Cl)c1 (stereo not shown) [Example 66, N-((1r,3r)-3-(3-chloro-4-cyanophenoxy)-2,2,4,4-tetramethylcyclobutyl)-4-(4-((1-(1-(3-(2,6-dioxopiperidin-3-yl)-4-oxo-3,4-dihydrobenzo[d][1,2,3]triazin-6-yl)azetidine-3-carbonyl)piperidin-4-ylidene)methyl)piperazin-1-yl)benzamide] | 18.2 nM
7 | 18% | CC1(C)C(NC(=O)c2ccc(-c3cnn(C4CCN(CC5CCN(c6ccc7nnn(C8CCC(=O)NC8=O)c(=O)c7c6)CC5)CC4)c3)cc2)C(C)(C)C1Oc1ccc(C#N)c(Cl)c1 (stereo not shown) [Example 84, N-((1r,3r)-3-(3-chloro-4-cyanophenoxy)-2,2,4,4-tetramethylcyclobutyl)-4-(1-(1-((1-(3-(2,6-dioxopiperidin-3-yl)-4-oxo-3,4-dihydrobenzo[d][1,2,3]triazin-6-yl)piperidin-4-yl)methyl)piperidin-4-yl)-1H-pyrazol-4-yl)benzamide] | 15.4 nM
8 | 5.8% | CC1(C)C(NC(=O)c2ccc(N3CCN(CC4(O)CCN(C(=O)CNc5ccc6nnn(C7CCC(=O)NC7=O)c(=O)c6c5)CC4)CC3)cc2)C(C)(C)C1Oc1ccc(C#N)c(Cl)c1 (stereo not shown) [Example 53, N-((1r,3r)-3-(3-chloro-4-cyanophenoxy)-2,2,4,4-tetramethylcyclobutyl)-4-(4-((1-((3-(2,6-dioxopiperidin-3-yl)-4-oxo-3,4-dihydrobenzo[d][1,2,3]triazin-6-yl)glycyl)-4-hydroxypiperidin-4-yl)methyl)piperazin-1-yl)benzamide] | 19.7 nM
9 | 20.3% | CC1(C)C(NC(=O)c2ccc(N3CCN(CC4CCN(CCNC(=O)COc5ccc6nnn(C7CCC(=O)NC7=O)c(=O)c6c5)CC4)CC3)cc2)C(C)(C)C1Oc1ccc(C#N)c(Cl)c1 (stereo not shown) [Example 60, N-((1r,3r)-3-(3-chloro-4-cyanophenoxy)-2,2,4,4-tetramethylcyclobutyl)-4-(4-((1-(2-(2-((3-(2,6-dioxopiperidin-3-yl)-4-oxo-3,4-dihydrobenzo[d][1,2,3]triazin-6-yl)oxy)acetamido)ethyl)piperidin-4-yl)methyl)piperazin-1-yl)benzamide] | 3280 nM
10 | 2.1% | CC1(C)C(NC(=O)c2ccc(N3CCN(CCCOC4CCN(c5ccc6nnn(C7CCC(=O)NC7=O)c(=O)c6c5)CC4)CC3)cc2)C(C)(C)C1Oc1ccc(C#N)c(Cl)c1 (stereo not shown) [Example 39, N-((1r,3r)-3-(3-chloro-4-cyanophenoxy)-2,2,4,4-tetramethylcyclobutyl)-4-(4-(3-((1-(3-(2,6-dioxopiperidin-3-yl)-4-oxo-3,4-dihydrobenzo[d][1,2,3]triazin-6-yl)piperidin-4-yl)oxy)propyl)piperazin-1-yl)benzamide] | 86.6 nM
11 | 33.6% | CC1(C)C(NC(=O)c2ccc(N3CCN(C(=O)C4CN(c5ccc6nnn(C7CCC(=O)NC7=O)c(=O)c6c5)C4)CC3)cc2)C(C)(C)C1Oc1ccc(C#N)c(Cl)c1 (stereo not shown) [Example 43, N-((1r,3r)-3-(3-chloro-4-cyanophenoxy)-2,2,4,4-tetramethylcyclobutyl)-4-(4-(1-(3-(2,6-dioxopiperidin-3-yl)-4-oxo-3,4-dihydrobenzo[d][1,2,3]triazin-6-yl)azetidine-3-carbonyl)piperazin-1-yl)benzamide] | 37.3 nM
12 | 92% | CC1(C)C(NC(=O)c2ccc(N3CC4CC3CN4CC3CCN(c4ccc5nnn(C6CCC(=O)NC6=O)c(=O)c5c4)CC3)cc2)C(C)(C)C1Oc1ccc(C#N)c(Cl)c1 (stereo not shown) [Example 72, N-((1r,3r)-3-(3-chloro-4-cyanophenoxy)-2,2,4,4-tetramethylcyclobutyl)-4-(5-((1-(3-(2,6-dioxopiperidin-3-yl)-4-oxo-3,4-dihydrobenzo[d][1,2,3]triazin-6-yl)piperidin-4-yl)methyl)-2,5-diazabicyclo[2.2.1]heptan-2-yl)benzamide] | 263 nM
13 | 21% | CC1(C)C(NC(=O)c2ccc(C#CCC3CCN(c4ccc5nnn(C6CCC(=O)NC6=O)c(=O)c5c4)CC3)cc2)C(C)(C)C1Oc1ccc(C#N)c(Cl)c1 (stereo not shown) [Example 85, N-((1r,3r)-3-(3-chloro-4-cyanophenoxy)-2,2,4,4-tetramethylcyclobutyl)-4-(3-(1-(3-(2,6-dioxopiperidin-3-yl)-4-oxo-3,4-dihydrobenzo[d][1,2,3]triazin-6-yl)piperidin-4-yl)prop-1-yn-1-yl)benzamide] | 171 nM
14 | 13.3% | CC1(C)C(NC(=O)c2ccc(N3CCN(C(=O)CN4CCN(c5ccc6nnn(C7CCC(=O)NC7=O)c(=O)c6c5)CC4)CC3)cc2)C(C)(C)C1Oc1ccc(C#N)c(Cl)c1 (stereo not shown) [Example 57, N-((1r,3r)-3-(3-chloro-4-cyanophenoxy)-2,2,4,4-tetramethylcyclobutyl)-4-(4-(2-(4-(3-(2,6-dioxopiperidin-3-yl)-4-oxo-3,4-dihydrobenzo[d][1,2,3]triazin-6-yl)piperazin-1-yl)acetyl)piperazin-1-yl)benzamide] | 225 nM

Source: US20240018123A1, “COMPOUND FOR INHIBITING OR DISINTEGRATING ANDROGEN RECEPTOR, AND PHARMACEUTICAL USE THEREOF” (KOREA RESEARCH INSTITUTE OF CHEMICAL TECHNOLOGY, priority 2020, published 2024)
